Results published in article PMC5218480 (PLoS ONE, 2017).

System: MV-4-11 cells
Assay: Gene expression microarray analysis (Affymetrix PrimeView) and GSEA
Format: cell-based, human
Parameters: RFU PODN (11730768_x_at) / Fold change /veh PODN (11730768_x_at) / RFU LINC00158 (11744669_a_at) / Fold change /veh LINC00158 (11744669_a_at) / RFU DUSP10 (11751237_a_at) / Fold change /veh DUSP10 (11751237_a_at) / RFU ID3 (11757404_x_at) / Fold change /veh ID3 (11757404_x_at) / RFU PLEKHG5 (11737974_s_at) / Fold change /veh PLEKHG5 (11737974_s_at) / RFU LRRC4B (11730491_at) / Fold change /veh LRRC4B (11730491_at) / RFU GIMAP4 (11747438_a_at) / Fold change /veh GIMAP4 (11747438_a_at) / RFU KRT8 (11758183_x_at) / Fold change /veh KRT8 (11758183_x_at) / RFU CNN1 (11734310_a_at) / Fold change /veh CNN1 (11734310_a_at) / RFU VPS37D (11726825_at) / Fold change /veh VPS37D (11726825_at) / RFU C10orf10 (11716522_x_at) / Fold change /veh C10orf10 (11716522_x_at) / RFU KIR2DL2 /// KIR2DL4 /// KIR2DL5A /// KIR2DL5B /// KIR2DS1 /// KIR2DS2 /// KIR2DS3 /// KIR2DS4 /// KIR3DL3 /// KIR3DL3 /// KIR3DS1 (11738374_at) / Fold change /veh KIR2DL2 /// KIR2DL4 /// KIR2DL5A /// KIR2DL5B /// KIR2DS1 /// KIR2DS2 /// KIR2DS3 /// KIR2DS4 /// KIR3DL3 /// KIR3DL3 /// KIR3DS1 (11738374_at) / RFU C1QL1 (11718748_at) / Fold change /veh C1QL1 (11718748_at) / RFU TMPRSS4 (11747572_a_at) / Fold change /veh TMPRSS4 (11747572_a_at) / RFU HAMP (11756126_x_at) / Fold change /veh HAMP (11756126_x_at) / RFU RNFT2 (11725882_a_at) / Fold change /veh RNFT2 (11725882_a_at) / RFU NR4A2 (11747474_a_at) / Fold change /veh NR4A2 (11747474_a_at) / RFU ABCC12 (11746883_a_at) / Fold change /veh ABCC12 (11746883_a_at) / RFU TMEM136 (11760407_x_at) / Fold change /veh TMEM136 (11760407_x_at) / RFU CLDN22 /// WWC2 (11732394_at) / Fold change /veh CLDN22 /// WWC2 (11732394_at) / RFU HLA-DPB1 (11760878_x_at) / Fold change /veh HLA-DPB1 (11760878_x_at) / RFU SPINT1 (11716480_a_at) / Fold change /veh SPINT1 (11716480_a_at) / RFU GAP43 (11754022_s_at) / Fold change /veh GAP43 (11754022_s_at) / RFU A4GNT (11735810_at) / Fold change /veh A4GNT (11735810_at) / RFU PRB3 (11715151_x_at) / Fold change /veh PRB3 (11715151_x_at) / RFU TUBB4B (11761932_at) / Fold change /veh TUBB4B (11761932_at) / RFU CAPN14 (11732068_a_at) / Fold change /veh CAPN14 (11732068_a_at) / RFU TMCC2 (11721928_a_at) / Fold change /veh TMCC2 (11721928_a_at) / RFU IRGQ (11745062_a_at) / Fold change /veh IRGQ (11745062_a_at) / RFU FAM174B (11720279_a_at) / Fold change /veh FAM174B (11720279_a_at) / RFU TMPRSS4 (11748680_a_at) / Fold change /veh TMPRSS4 (11748680_a_at) / RFU FAM212B (11763350_a_at) / Fold change /veh FAM212B (11763350_a_at) / RFU PLEKHG5 (11743358_a_at) / Fold change /veh PLEKHG5 (11743358_a_at) / RFU ZSCAN30 (11745921_a_at) / Fold change /veh ZSCAN30 (11745921_a_at) / RFU CMKLR1 (11741424_a_at) / Fold change /veh CMKLR1 (11741424_a_at) / RFU LOC101060620 /// MAPK8IP1 (11723275_at) / Fold change /veh LOC101060620 /// MAPK8IP1 (11723275_at) / RFU SPTSSB (11747773_x_at) / Fold change /veh SPTSSB (11747773_x_at) / RFU PRSS12 (11739890_at) / Fold change /veh PRSS12 (11739890_at) / RFU BIN1 (11741810_x_at) / Fold change /veh BIN1 (11741810_x_at) / RFU WNT11 (11732464_a_at) / Fold change /veh WNT11 (11732464_a_at) / RFU C10orf10 (11716521_a_at) / Fold change /veh C10orf10 (11716521_a_at) / RFU C5orf56 (11738089_at) / Fold change /veh C5orf56 (11738089_at) / RFU CYB561 (11721691_x_at) / Fold change /veh CYB561 (11721691_x_at) / RFU ANKRD19P (11752326_a_at) / Fold change /veh ANKRD19P (11752326_a_at) / RFU OR2T12 /// OR2T33 /// OR2T8 (11738714_s_at) / Fold change /veh OR2T12 /// OR2T33 /// OR2T8 (11738714_s_at) / RFU VCAN (11748164_a_at) / Fold change /veh VCAN (11748164_a_at) / RFU JSRP1 (11732532_at) / Fold change /veh JSRP1 (11732532_at) / RFU KRTAP10-11 (11738290_x_at) / Fold change /veh KRTAP10-11 (11738290_x_at) / RFU MYO3A (11730013_a_at) / Fold change /veh MYO3A (11730013_a_at) / RFU EBF3 (11725865_a_at) / Fold change /veh EBF3 (11725865_a_at) / RFU CAMK2N1 (11719241_x_at) / Fold change /veh CAMK2N1 (11719241_x_at) / RFU C5orf56 (11738088_a_at) / Fold change /veh C5orf56 (11738088_a_at) / RFU OLFML3 (11715873_a_at) / Fold change /veh OLFML3 (11715873_a_at) / RFU LOC100653217 /// NTM (11731650_a_at) / Fold change /veh LOC100653217 /// NTM (11731650_a_at) / RFU MAPK11 (11762145_a_at) / Fold change /veh MAPK11 (11762145_a_at) / RFU FIZ1 (11724087_x_at) / Fold change /veh FIZ1 (11724087_x_at) / RFU OASL (11726364_x_at) / Fold change /veh OASL (11726364_x_at) / RFU SOX15 (11748057_x_at) / Fold change /veh SOX15 (11748057_x_at) / RFU CD79A (11719716_a_at) / Fold change /veh CD79A (11719716_a_at) / RFU HIST1H1D (11736915_at) / Fold change /veh HIST1H1D (11736915_at) / RFU CASKIN2 (11723855_a_at) / Fold change /veh CASKIN2 (11723855_a_at) / RFU LOC730098 (11760151_x_at) / Fold change /veh LOC730098 (11760151_x_at) / RFU OR4N2 (11742367_at) / Fold change /veh OR4N2 (11742367_at) / RFU PRRT2 (11749266_a_at) / Fold change /veh PRRT2 (11749266_a_at) / RFU SNX32 (11753110_a_at) / Fold change /veh SNX32 (11753110_a_at) / RFU CDHR5 (11726645_a_at) / Fold change /veh CDHR5 (11726645_a_at) / RFU RCAN1 (11760418_a_at) / Fold change /veh RCAN1 (11760418_a_at) / RFU FAM167A (11723789_a_at) / Fold change /veh FAM167A (11723789_a_at) / RFU FAM26E (11764081_at) / Fold change /veh FAM26E (11764081_at) / RFU ISYNA1 (11749810_s_at) / Fold change /veh ISYNA1 (11749810_s_at) / RFU ACY1 (11761880_at) / Fold change /veh ACY1 (11761880_at) / RFU 11764098_at / Fold change /veh 11764098_at / RFU SAMD14 (11745864_x_at) / Fold change /veh SAMD14 (11745864_x_at) / RFU NPB (11741838_a_at) / Fold change /veh NPB (11741838_a_at) / RFU TMPRSS6 (11731388_a_at) / Fold change /veh TMPRSS6 (11731388_a_at) / RFU KRTAP10-2 (11738614_at) / Fold change /veh KRTAP10-2 (11738614_at) / RFU ARHGAP8 /// PRR5-ARHGAP8 (11727945_x_at) / Fold change /veh ARHGAP8 /// PRR5-ARHGAP8 (11727945_x_at) / RFU KRTAP5-7 /// NADSYN1 (11734609_at) / Fold change /veh KRTAP5-7 /// NADSYN1 (11734609_at) / RFU RASL12 (11751679_a_at) / Fold change /veh RASL12 (11751679_a_at) / RFU CDKN2B (11736163_a_at) / Fold change /veh CDKN2B (11736163_a_at) / RFU PRF1 (11729649_at) / Fold change /veh PRF1 (11729649_at) / RFU, ZNF638 /// ZNF638-IT1 / Fold change vs veh, ZNF638 /// ZNF638-IT1 / RFU, PANK3 / Fold change vs veh, PANK3 / RFU, SH3YL1 / Fold change vs veh, SH3YL1 / RFU, ZEB2 / Fold change vs veh, ZEB2 / RFU, NRIP1 / Fold change vs veh, NRIP1 / RFU, PTTG1IP / Fold change vs veh, PTTG1IP / RFU, CAPN2 / Fold change vs veh, CAPN2 / RFU, MED14 / Fold change vs veh, MED14 / RFU, SNORA58 / Fold change vs veh, SNORA58 / RFU, C1orf63 / Fold change vs veh, C1orf63 / RFU, LRRFIP1 / Fold change vs veh, LRRFIP1 / RFU, NDUFAF7 / Fold change vs veh, NDUFAF7 / RFU, SLC12A2 / Fold change vs veh, SLC12A2 / RFU, IBTK / Fold change vs veh, IBTK / RFU, ESF1 / Fold change vs veh, ESF1 / Fold change vs veh, TMEM50B / RFU, TAOK1 / Fold change vs veh, TAOK1 / RFU, ACBD3 / Fold change vs veh, ACBD3 / RFU, TMA16 / Fold change vs veh, TMA16 / RFU, RWDD3 / Fold change vs veh, RWDD3 / RFU, BCAT1 / Fold change vs veh, BCAT1 / RFU, EDEM3 / Fold change vs veh, EDEM3 / RFU, TMEM33 / Fold change vs veh, TMEM33 / RFU, WDR75 / Fold change vs veh, WDR75 / RFU, AHCTF1 / Fold change vs veh, AHCTF1 / RFU, TFRC / Fold change vs veh, TFRC / RFU, ZDHHC17 / Fold change vs veh, ZDHHC17 / RFU, NOM1 / Fold change vs veh, NOM1 / RFU, ARL8B / Fold change vs veh, ARL8B / RFU, ZBTB11 / Fold change vs veh, ZBTB11 / RFU, TAMM41 / Fold change vs veh, TAMM41 / RFU, KIAA1704 /// LOC100996395 / Fold change vs veh, KIAA1704 /// LOC100996395 / RFU, ING1 / Fold change vs veh, ING1 / RFU, TRMT61B / Fold change vs veh, TRMT61B / RFU, FUBP3 / Fold change vs veh, FUBP3 / RFU, TP53 / Fold change vs veh, TP53 / RFU, TNKS2 / Fold change vs veh, TNKS2 / RFU, ZFP14 / Fold change vs veh, ZFP14 / RFU, ACTR2 / Fold change vs veh, ACTR2 / RFU, PPP3R1 / Fold change vs veh, PPP3R1 / RFU, PIK3R1 / Fold change vs veh, PIK3R1 / RFU, HNRNPA1 / Fold change vs veh, HNRNPA1 / RFU, RNF170 / Fold change vs veh, RNF170 / RFU, ZNF28 / Fold change vs veh, ZNF28 / RFU, RNGTT / Fold change vs veh, RNGTT / RFU, OGT / Fold change vs veh, OGT / RFU, BRD1 / Fold change vs veh, BRD1 / RFU, MARS / Fold change vs veh, MARS / RFU, ZNF655 / Fold change vs veh, ZNF655 / RFU, FAHD1 / Fold change vs veh, FAHD1 / RFU, BDP1 / Fold change vs veh, BDP1 / RFU, LRRCC1 / Fold change vs veh, LRRCC1 / RFU, ARID1A / Fold change vs veh, ARID1A / RFU, ZNF146 / Fold change vs veh, ZNF146 / RFU, ZNF330 / Fold change vs veh, ZNF330 / RFU, GPN3 / Fold change vs veh, GPN3 / RFU, C9orf123 / Fold change vs veh, C9orf123 / RFU, N4BP2L2 / Fold change vs veh, N4BP2L2 / RFU, ARFIP1 / Fold change vs veh, ARFIP1 / RFU, FAM179B / Fold change vs veh, FAM179B / RFU, BCL10 / Fold change vs veh, BCL10 / RFU, UHRF1BP1L / Fold change vs veh, UHRF1BP1L / RFU, BET1 / Fold change vs veh, BET1 / RFU, CNOT2 / Fold change vs veh, CNOT2 / RFU, ZNF268 / Fold change vs veh, ZNF268 / Fold change vs veh, ZNF507 / RFU, DGCR2 / Fold change vs veh, DGCR2 / RFU, WDSUB1 / Fold change vs veh, WDSUB1 / Fold change vs veh, HSP90B1 /// MIR3652 / RFU, ADSS / Fold change vs veh, ADSS / RFU, GK / Fold change vs veh, GK / RFU, ZNF148 / Fold change vs veh, ZNF148 / RFU, TAF9 / Fold change vs veh, TAF9 / RFU, SLC1A5 / Fold change vs veh, SLC1A5 / RFU, SLMO2 / Fold change vs veh, SLMO2 / RFU, ABCC4 / Fold change vs veh, ABCC4 / RFU, LOC101060439 /// RAP1B / Fold change vs veh, LOC101060439 /// RAP1B / RFU, RFX7 / Fold change vs veh, RFX7 / RFU, GTPBP10 / Fold change vs veh, GTPBP10 / RFU, CNEP1R1 / Fold change vs veh, CNEP1R1 / RFU, BIVM-ERCC5 /// ERCC5 / Fold change vs veh, BIVM-ERCC5 /// ERCC5 / RFU, ILF3 / Fold change vs veh, ILF3 / RFU 11762660_at / Fold change /veh 11762660_at / RFU VCAN (11757783_s_at) / Fold change /veh VCAN (11757783_s_at) / RFU DDX43 (11728927_at) / Fold change /veh DDX43 (11728927_at) / RFU KRT8 (11758188_x_at) / Fold change /veh KRT8 (11758188_x_at) / RFU NKD1 (11759106_at) / Fold change /veh NKD1 (11759106_at) / RFU SRD5A1 (11742802_a_at) / Fold change /veh SRD5A1 (11742802_a_at) / RFU TPSAB1 /// TPSB2 (11721975_s_at) / Fold change /veh TPSAB1 /// TPSB2 (11721975_s_at) / RFU GSTM3 (11746129_a_at) / Fold change /veh GSTM3 (11746129_a_at) / RFU IL23R (11737362_x_at) / Fold change /veh IL23R (11737362_x_at) / RFU TMEM51 (11727254_a_at) / Fold change /veh TMEM51 (11727254_a_at) / RFU PIWIL2 (11732686_x_at) / Fold change /veh PIWIL2 (11732686_x_at) / RFU ORM1 (11744905_x_at) / Fold change /veh ORM1 (11744905_x_at) / RFU CCDC152 (11743942_at) / Fold change /veh CCDC152 (11743942_at) / RFU ECM1 (11717891_a_at) / Fold change /veh ECM1 (11717891_a_at) / RFU IL23R (11748794_a_at) / Fold change /veh IL23R (11748794_a_at) / RFU TNFAIP8L3 (11732012_x_at) / Fold change /veh TNFAIP8L3 (11732012_x_at) / RFU MBOAT4 (11741988_at) / Fold change /veh MBOAT4 (11741988_at) / RFU 11764193_at / Fold change /veh 11764193_at / RFU TMEM53 (11763286_at) / Fold change /veh TMEM53 (11763286_at) / RFU MAGEB2 (11727129_at) / Fold change /veh MAGEB2 (11727129_at) / RFU TMEM200A (11744735_a_at) / Fold change /veh TMEM200A (11744735_a_at) / RFU CCDC152 (11751479_a_at) / Fold change /veh CCDC152 (11751479_a_at) / RFU FAM211A (11726209_a_at) / Fold change /veh FAM211A (11726209_a_at) / RFU RGS16 (11746705_a_at) / Fold change /veh RGS16 (11746705_a_at) / RFU VCAN (11755009_s_at) / Fold change /veh VCAN (11755009_s_at) / RFU RHOB (11743442_s_at) / Fold change /veh RHOB (11743442_s_at) / RFU RGS16 (11720943_a_at) / Fold change /veh RGS16 (11720943_a_at) / RFU RGS16 (11720944_at) / Fold change /veh RGS16 (11720944_at) / RFU, VPS4B / Fold change vs veh, VPS4B / RFU, CREB1 / Fold change vs veh, CREB1 / RFU, DNAJC13 / Fold change vs veh, DNAJC13 / RFU, GNAQ / Fold change vs veh, GNAQ / RFU, CDK5R1 / Fold change vs veh, CDK5R1 / RFU, ZRANB3 / Fold change vs veh, ZRANB3 / RFU, CUL4A / Fold change vs veh, CUL4A / RFU, CCNY / Fold change vs veh, CCNY / RFU, UFL1 / Fold change vs veh, UFL1 / RFU, COG3 / Fold change vs veh, COG3 / RFU, DIAPH2 / Fold change vs veh, DIAPH2 / RFU, SKA2 / Fold change vs veh, SKA2 / RFU, AFF3 / Fold change vs veh, AFF3 / RFU, LMF1 / Fold change vs veh, LMF1 / RFU, IPO11 / Fold change vs veh, IPO11 / RFU, DFFB / Fold change vs veh, DFFB / RFU, FOXP1 / Fold change vs veh, FOXP1 / RFU, CARD8 / Fold change vs veh, CARD8 / RFU, STRN3 / Fold change vs veh, STRN3 / RFU, ADK / Fold change vs veh, ADK / RFU, RASSF2 / Fold change vs veh, RASSF2 / RFU, WIPF1 / Fold change vs veh, WIPF1 / RFU, LARP1B / Fold change vs veh, LARP1B / RFU, RASA1 / Fold change vs veh, RASA1 / RFU, RB1 / Fold change vs veh, RB1 / RFU, PPFIA1 / Fold change vs veh, PPFIA1 / RFU, MAT2A / Fold change vs veh, MAT2A / RFU, CCT5 / Fold change vs veh, CCT5 / RFU, WDR92 / Fold change vs veh, WDR92 / RFU, CUX1 / Fold change vs veh, CUX1 / RFU, TTC7A / Fold change vs veh, TTC7A / RFU, TMEM135 / Fold change vs veh, TMEM135 / RFU, DEPTOR / Fold change vs veh, DEPTOR / RFU, CPM / Fold change vs veh, CPM / RFU, DNAJB6 / Fold change vs veh, DNAJB6 / RFU, CACNA2D3 / Fold change vs veh, CACNA2D3 / RFU, DTX4 / Fold change vs veh, DTX4 / RFU, TFCP2 / Fold change vs veh, TFCP2 / RFU, GMCL1 /// GMCL1P1 / Fold change vs veh, GMCL1 /// GMCL1P1 / RFU, AEBP2 / Fold change vs veh, AEBP2 / RFU, SNHG1 /// SNORD22 /// SNORD25 /// SNORD26 /// SNORD27 /// SNORD28 /// SNORD29 /// SNORD31 / Fold change vs veh, SNHG1 /// SNORD22 /// SNORD25 /// SNORD26 /// SNORD27 /// SNORD28 /// SNORD29 /// SNORD31 / Fold change (Aza/veh), C12orf56 (ProbeSet 11735607_a_at) / Fold change (ACY-1035/veh), C12orf56 (ProbeSet 11735607_a_at) / Fold change (Aza/veh), FGFR1OP (ProbeSet 11751329_s_at) / Fold change (ACY-1035/veh), FGFR1OP (ProbeSet 11751329_s_at) / Fold change (Aza/veh), VPS36 (ProbeSet 11739960_a_at) / Fold change (ACY-1035/veh), VPS36 (ProbeSet 11739960_a_at) / RFU SYPL1 (11715823_x_at) / Fold change /veh SYPL1 (11715823_x_at) / RFU IGFBP7 (11715501_s_at) / Fold change /veh IGFBP7 (11715501_s_at) / RFU REEP3 (11722064_at) / Fold change /veh REEP3 (11722064_at) / RFU IGLL1 (11728026_x_at) / Fold change /veh IGLL1 (11728026_x_at): dose or concentration left out as unconfirmed
Details: ProbeSet 11729173_a_at; LIST D

Structure (SMILES): Nc1ccc(-c2cccs2)cc1NC(=O)c1ccc2c(c1)cc(C1CC1)n2CCN1CCOCC1 [ACY-1035]
- Fold change vs veh, SKA2: 0.84
